Tested on: RNA isoforms in PNN 1-46 SMA type I patient-derived fibroblasts
Assay: RNA Abundance Modulation (RNA isoform abundance, iFPM, HiSeq RNA sequencing)
Assay type: cell-based, human
Conditions: 3 μM
Experimental: Cells from a cell line of interest are cultured in conditions sufficient to yield the number of cells capable of generating enough RNA for subsequent sequencing steps. Cells from the tested cell line are contacted with a compound described herein.
To culture said cells, they are seeded, at appropriate concentrations in a volume of media in a cell culture container and incubated for 4, 5, 6, 7, 8, 9, 10, or more hours. A concentrated solution of compound in a vehicle (e.g., DMSO) is then added in sufficient volume to result in the intended final concentration of the compound, for example 100 nM, 500 nM, 1 μM, 5 μM, 10 μM, 15 μM, 20 μM, or more. The cells may also be treated with vehicle alone, as a control. A number of replicates of each concentration or control may be made (e.g., 2 replicates). The cells are then incubated at a constant temperature appropriate for cell culture of the particular cell line (e.g., 37° C.) for 6, 12, 18, 24, 48, or more hours. After incubation, the growth medium is removed and the cells are washed with the appropriate buffer (e.g., PBS). Cells are then removed from adherence to the cell culture container by treatment with a solution containing trypsin, and the trypsin subsequently quenched with the appropriate volume of buffer (e.g., DMEM-FBS). The cells are then pelleted with gentle centrifugation (e.g., ≤90×g centrifugal force) and resuspended in a buffer to lyse the cells for extraction of RNA. The cell lysates may then be frozen (e.g., at −80° C.) or, alternately, may immediately be used in a procedure to purify the RNA (e.g. by use of the RNEASY PLUS® minikit). The RNA from cell lysates is eluted in the appropriate volume of buffer (e.g., RNEASE-FREE H2O®). The resulting purified RNA may then be sequenced (e.g., using RNASeq) or analyzed using a human exon array (e.g., by GENECHIP® human exon array) to determine changes in the RNA levels in those cells treated with compound compared to those cells treated only with DMSO. The purified RNA may also be quantified by other methods known in the art.
Using the RNA data obtained from sequencing, exon array, or other methods, a statistical analysis can reveal changes in the RNA levels of compound-treated compared with control. For example, t-test p-values may be calculated for the data obtained through sequencing and exon array methods in order to compare compound-treated cells to those treated with the DMSO control. […] Analysis of the sequencing and exon array data may then also yield predictions about the cause of the aberrant amount of an RNA transcript in the cells (e.g., perturbation of RNA splicing, RNA transcription, or RNA stability). These predictions may be further confirmed by methods known in the art. For example, RT-PCR and RT-qPCR may be used to confirm the change in amount of RNA transcripts for one or more particular transcripts of interest.
Following the methods described above in Example 1, PNN 1-46 SMA type I patient-derived fibroblasts were treated with 300 nM or 3 μM Compounds 774 and 808 in 0.5% DMSO.
700,000 cells were seeded in 10 mL of medium (DMEM plus 10% FBS) in a T-75 flask. Cells were allowed to attach for at least 4 hrs, after which 50 μL of a 200× compound solution (100% DMSO) was added to each well, and the plate was incubated at 37° C. for 24 hrs.
At the end of the incubation period, the supernatant was removed and the cells where washed with PBS. TrypLE (Invitrogen) express solution was added (e.g. 1.5 mL per one T75 flask). The flasks were incubated for 3 to 5 min at 37° C. The trypsin was then quenched, e.g., by adding 10 mL DMEM-FBS.
Next, the cells were pelleted using gentle centrifugation without exceeding 90×g centrifugal force. The supernatant was removed and the cell pellet was re-suspended in 600 μL RLT buffer (the RLT buffer was supplemented with beta-mercaptoethanol according to the RNeasy protocol manual) by pipetting up and down until the pellet was completely dissolved […]

## CCc1nc(C)cn2nc(-c3cc(=O)n4cc(C5CCN(C)CC5)cc(C)c4n3)cc12 [Compound 774]
TGFBRAP1 NM_004257
  amp FC (x + 1): 156.98
  ave Cpd: 0 iFPM
TGFBRAP1 NM_001142621
  FC (x + 1): 1.6224
  L2FC (x + 1): 0.698
  L2abs (Cpd-DMSO): 7.42
  abs (Cpd-DMSO): 172 iFPM
  amp FC (x + 1): 1.62
  ave Cpd: 446 iFPM
THADA AK025445
  FC (x + 1): 0.2651
  L2FC (x + 1): −1.915
  L2abs (Cpd-DMSO): 5.17
  abs (Cpd-DMSO): 36 iFPM
  amp FC (x + 1): 3.77
  ave Cpd: 12 iFPM
THADA AK126824
  FC (x + 1): 0.1808
  L2FC (x + 1): −2.468
  L2abs (Cpd-DMSO): 2.55
  abs (Cpd-DMSO): 6 iFPM
  amp FC (x + 1): 5.53
  ave Cpd: 0 iFPM
THADA AK307915
  FC (x + 1): 0.2071
  L2FC (x + 1): −2.272
  L2abs (Cpd-DMSO): 3.71
  abs (Cpd-DMSO): 13 iFPM
  amp FC (x + 1): 4.83
  ave Cpd: 2 iFPM
THADA AL832141
  FC (x + 1): 1.7328
  L2FC (x + 1): 0.793
  L2abs (Cpd-DMSO): 0.72
  abs (Cpd-DMSO): 2 iFPM
  amp FC (x + 1): 1.73
  ave Cpd: 3 iFPM
THADA AY149632
  FC (x + 1): 1.0000
  L2FC (x + 1): 0.000
  L2abs (Cpd-DMSO): 0
  abs (Cpd-DMSO): 0 iFPM
  amp FC (x + 1): 1.00
  ave Cpd: 0 iFPM
THADA BX641038
  FC (x + 1): 0.6958
  L2FC (x + 1): −0.523
  L2abs (Cpd-DMSO): 0.60
  abs (Cpd-DMSO): 2 iFPM
  amp FC (x + 1): 1.44
  ave Cpd: 2 iFPM
THADA NM_022065
  FC (x + 1): 0.3170
  L2FC (x + 1): −1.658
  L2abs (Cpd-DMSO): 9.36
  abs (Cpd-DMSO): 657 iFPM
  amp FC (x + 1): 3.15
  ave Cpd: 304 iFPM
THADA NM_001083953
  FC (x + 1): 0.0135
  L2FC (x + 1): −6.211
  L2abs (Cpd-DMSO): 6.19
  abs (Cpd-DMSO): 73 iFPM
  amp FC (x + 1): 74.06
  ave Cpd: 0 iFPM
THADA NM_001271643
  FC (x + 1): 1.1557
  L2FC (x + 1): 0.209
  L2abs (Cpd-DMSO): 2.41
  abs (Cpd-DMSO): 5 iFPM
  amp FC (x + 1): 1.16
  ave Cpd: 38 iFPM
THADA NM_001271644
  FC (x + 1): 4.4176
  L2FC (x + 1): 2.143
  L2abs (Cpd-DMSO): 3.80
  abs (Cpd-DMSO): 14 iFPM
  amp FC (x + 1): 4.42
  ave Cpd: 17 iFPM
THADA NR_073394
  FC (x + 1): 0.6844
  L2FC (x + 1): −0.547
  L2abs (Cpd-DMSO): −0.13
  abs (Cpd-DMSO): 1 iFPM
  amp FC (x + 1): 1.46
  ave Cpd: 1 iFPM
TIMP2 AK294290
  FC (x + 1): 0.0109
